Measured values taken from US20110288086A1, “POLYCYCLIC QUINAZOLINES, PREPARATION THEREOF, AND USE THEREOF” (priority 2010, published 2011).
Values after ≈ are worked out from the molar mass of the structure shown.

How the values were obtained:
Acute Toxicity Study = conditions: in vivo; preliminary screening, Bliss statistical method
Protocol: The acute toxicity experiments were carried out according to the methods disclosed in the book of Modern Pharmacological Methods, edited chiefly by Zhang Jun-Tian.

[1] = system: PANC-1 human pancreatic cancer cells; experiment: Tumor cell inhibition ratio, CCK-8 kit, PANC-1; conditions: PANC-1, read-out: Antiproliferative effect (inhibition ratio) PANC-1
Excerpt: (§3) The inhibitory activities of the compounds on tumor cells in vitro

[2] = system: A549 human lung cancer cells; experiment: Tumor cell IC50, CCK-8 kit, A549; assay type: cell-based
Excerpt: (§1) The inhibitory activities of the compounds on tumor cells (IC50) in vitro
(§2) The IC50 (IC50, unit: μg/ml) values of the compounds on Hut78 T-Lymphocytic Leukemia cells, Jurkat E6-1 human T-cell lymphoma, PANC-1 human pancreatic cancer cells, A549 human lung cancer cells, K562 human chronicity marrow leukemic cells, Hep3B2. 1-7 human hepatoma carcinoma cells, MDA-MB-435s human breast carcinoma cells, Colo320 human rectal cancer cells, PC-3 human carcinoma of prostate, and HepG2 human hepatoma carcinoma cells were determined using a CCK-8 kit. Erlotinib hydrochloride was used as the positive control drug.

[3] = system: PC-3 human carcinoma of prostate; experiment: Tumor cell IC50, CCK-8 kit, PC-3; assay type: cell-based; conditions: PC-3 cells
Excerpt: as §1, §2

[4] = system: PANC-1 human pancreatic cancer cells; experiment: Tumor cell IC50, CCK-8 kit, PANC-1; assay type: cell-based; conditions: PANC-1 cells
Excerpt: as §1, §2

EGFR tyrosine kinase = EGFR tyrosine kinase (Homo sapiens, UniProt P00533); experiment: EGFR tyrosine kinase inhibition in vitro (Invitrogen EGFR inhibitor screening kit PV3193)
Excerpt: The inhibitory activities of EGFR tyrosine kinase in vitro
Erlotinib hydrochloride was used as a positive control drug.

[5] = system: K562 human chronicity marrow leukemic cells; experiment: Tumor cell inhibition ratio, CCK-8 kit, K562; conditions: K562, read-out: Antiproliferative effect (inhibition ratio) K562
Excerpt: as §3

[6] = system: A549 human lung cancer cells; experiment: Tumor cell inhibition ratio, CCK-8 kit, A549; conditions: A549, read-out: Antiproliferative effect (inhibition ratio) A549
Excerpt: as §3

[7] = system: Hut78 T-Lymphocytic Leukemia cells; experiment: Tumor cell IC50, CCK-8 kit, Hut78; assay type: cell-based; conditions: Homo sapiens, Hut-78 cells
Excerpt: as §1, §2

[8] = system: K562 human chronicity marrow leukemic cells; experiment: Tumor cell IC50, CCK-8 kit, K562; assay type: cell-based
Excerpt: as §1, §2

[9] = system: Jurkat E6-1 human T-cell lymphoma; experiment: Tumor cell inhibition ratio, CCK-8 kit, Jurkat E6-1; conditions: Jurkat E6.1, read-out: Antiproliferative effect (inhibition ratio) E6-1
Excerpt: as §3

[10] = system: Colo320 human rectal cancer cells; experiment: Tumor cell IC50, CCK-8 kit, Colo320; assay type: cell-based; conditions: COLO 320
Excerpt: as §1, §2

[11] = system: MDA-MB-435s human breast carcinoma cells; experiment: Tumor cell inhibition ratio, CCK-8 kit, MDA-MB-435s; conditions: read-out: Antiproliferative effect (inhibition ratio) 435s
Excerpt: as §3

aurora kinase B = target: T1, aurora kinase B (Homo sapiens, UniProt Q96GD4); experiment: Aurora kinase B inhibition in vitro (Invitrogen aurora kinase screening kit PV3174); assay type: biochemical
T1 construct: purchased Invitrogen PV3174

[12] = system: PC-3 human carcinoma of prostate; experiment: Tumor cell inhibition ratio, CCK-8 kit, PC-3; conditions: read-out: Antiproliferative effect (inhibition ratio) PC-3
Excerpt: as §3

[13] = system: Hep3B2.1-7 human hepatoma carcinoma cells; experiment: Tumor cell inhibition ratio, CCK-8 kit, Hep3B; conditions: read-out: Antiproliferative effect (inhibition ratio) Hep3B
Excerpt: as §3

[14] = system: Jurkat E6-1 human T-cell lymphoma; experiment: Tumor cell IC50, CCK-8 kit, Jurkat E6-1; assay type: cell-based; conditions: E6-1 cells
Excerpt: as §1, §2

[15] = system: MDA-MB-435s human breast carcinoma cells; experiment: Tumor cell IC50, CCK-8 kit, MDA-MB-435s; assay type: cell-based; conditions: 435s cells
Excerpt: as §1, §2

[16] = system: Colo320 human rectal cancer cells; experiment: Tumor cell inhibition ratio, CCK-8 kit, Colo320; conditions: COLO 320, read-out: Antiproliferative effect (inhibition ratio) Colo320
Excerpt: as §3

[17] = system: Hep3B2. 1-7 human hepatoma carcinoma cells; experiment: Tumor cell IC50, CCK-8 kit, Hep3B; assay type: cell-based
Excerpt: as §1, §2

[18] = system: Hut78 T-Lymphocytic Leukemia cells; experiment: Tumor cell inhibition ratio, CCK-8 kit, Hut78; conditions: Homo sapiens, HuT78, read-out: Antiproliferative effect (inhibition ratio) Hut-78
Excerpt: as §3

T1 sequence (Q96GD4 whole entry): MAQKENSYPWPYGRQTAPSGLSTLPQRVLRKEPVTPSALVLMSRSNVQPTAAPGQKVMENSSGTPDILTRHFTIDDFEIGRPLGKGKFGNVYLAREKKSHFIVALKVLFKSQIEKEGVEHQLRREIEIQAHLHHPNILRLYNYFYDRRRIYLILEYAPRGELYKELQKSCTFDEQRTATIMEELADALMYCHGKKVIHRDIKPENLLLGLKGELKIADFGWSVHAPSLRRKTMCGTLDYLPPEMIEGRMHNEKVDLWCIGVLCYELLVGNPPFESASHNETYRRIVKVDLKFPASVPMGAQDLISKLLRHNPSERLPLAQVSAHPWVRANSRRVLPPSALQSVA
EGFR tyrosine kinase, sequence (P00533 25-1210): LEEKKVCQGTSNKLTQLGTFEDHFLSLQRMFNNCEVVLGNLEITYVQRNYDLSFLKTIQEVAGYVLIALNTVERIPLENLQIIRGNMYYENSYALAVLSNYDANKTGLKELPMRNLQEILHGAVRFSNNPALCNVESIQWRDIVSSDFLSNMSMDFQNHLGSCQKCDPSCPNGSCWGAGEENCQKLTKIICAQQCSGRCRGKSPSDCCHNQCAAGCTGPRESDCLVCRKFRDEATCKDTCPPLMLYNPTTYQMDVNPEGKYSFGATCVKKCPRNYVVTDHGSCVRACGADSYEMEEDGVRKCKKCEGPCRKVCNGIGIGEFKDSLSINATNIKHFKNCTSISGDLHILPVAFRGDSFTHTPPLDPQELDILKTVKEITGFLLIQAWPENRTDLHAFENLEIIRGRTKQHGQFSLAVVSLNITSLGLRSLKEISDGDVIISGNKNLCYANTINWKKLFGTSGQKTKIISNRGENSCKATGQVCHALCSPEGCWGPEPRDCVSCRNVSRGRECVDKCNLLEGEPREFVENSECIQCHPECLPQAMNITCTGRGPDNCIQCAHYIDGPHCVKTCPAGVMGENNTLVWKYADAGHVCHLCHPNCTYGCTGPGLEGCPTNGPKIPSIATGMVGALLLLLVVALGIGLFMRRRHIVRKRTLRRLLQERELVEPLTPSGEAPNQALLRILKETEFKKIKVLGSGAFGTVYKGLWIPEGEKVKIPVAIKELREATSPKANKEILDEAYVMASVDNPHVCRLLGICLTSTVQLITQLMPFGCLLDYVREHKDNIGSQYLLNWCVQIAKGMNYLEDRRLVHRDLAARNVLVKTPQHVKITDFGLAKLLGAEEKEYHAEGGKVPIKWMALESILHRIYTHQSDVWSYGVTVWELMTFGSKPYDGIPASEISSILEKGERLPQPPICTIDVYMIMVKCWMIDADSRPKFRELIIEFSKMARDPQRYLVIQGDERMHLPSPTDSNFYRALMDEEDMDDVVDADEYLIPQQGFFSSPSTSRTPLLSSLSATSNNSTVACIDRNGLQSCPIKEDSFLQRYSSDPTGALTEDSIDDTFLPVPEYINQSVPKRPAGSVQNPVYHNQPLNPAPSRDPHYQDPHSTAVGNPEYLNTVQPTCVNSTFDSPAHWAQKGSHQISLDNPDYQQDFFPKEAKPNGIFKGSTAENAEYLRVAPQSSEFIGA

Question: With `CS(=O)(=O)CCNCc1ccc(-c2ccc3c(c2)C2=Nc4ccc(OCc5cccc(F)c5)c(Cl)c4CN2C=N3)o1` [Compound V-33, N-((5-(9-chloro-10-(3-fluorobenzyloxy)-8H-quinazolino[4,3-b]quinazoline-2-yl)furan-2-yl)methyl)-2-(methylsulfonyl)ethylamine] as the compound, how does the LD50 (Acute Toxicity Study) read?
Answer: The LD50 was 2840 mg/kg.

Question: What about the inhibition at 10 µM [1] of the same compound?
Answer: The inhibition at 10 µM was 50.3%.

Question: What about the inhibition at 100 µM [1] of the same compound?
Answer: Its inhibition at 100 µM is 88%.

Question: And the IC50 [2]?
Answer: The IC50 was 0.05 µg/mL (≈ 0.0843 µM).

Question: What about the IC50 [3] of the same compound?
Answer: The IC50 was 40.7 µg/mL (≈ 68.6 µM).

Question: And the IC50 [4]?
Answer: Its IC50 is 1.97 µg/mL (≈ 3.32 µM).

Question: What about the “The inhibition ratio of the compound on EGFR(%)” value (EGFR tyrosine kinase; 40 μM) of the same compound?
Answer: The value was 64.3%.

Question: And the “The inhibition ratio of the compound on EGFR(%)” value (EGFR tyrosine kinase; 200 μM)?
Answer: The value was 97.9%.

Question: And the inhibition at 10 µM [5]?
Answer: Its inhibition at 10 µM is 40.5%.

Question: What about the inhibition at 100 µM [5] of the same compound?
Answer: Its inhibition at 100 µM is 86%.

Question: What about the inhibition at 10 µM [6] of the same compound?
Answer: The inhibition at 10 µM was 48.1%.

Question: What about the inhibition at 100 µM [6] of the same compound?
Answer: Its inhibition at 100 µM is 86.1%.

Question: What about the IC50 [7] of the same compound?
Answer: Its IC50 is 13.4 µg/mL (≈ 22.6 µM).

Question: What about the IC50 [8] of the same compound?
Answer: The IC50 was 62.6 µg/mL (≈ 105 µM).

Question: What about the inhibition at 10 µM [9] of the same compound?
Answer: Its inhibition at 10 µM is 41.6%.

Question: And the inhibition at 100 µM [9]?
Answer: The inhibition at 100 µM was 90.8%.

Question: What about the IC50 [10] of the same compound?
Answer: The IC50 was 7.83 µg/mL (≈ 13.2 µM).

Question: What about the inhibition at 10 µM [11] of the same compound?
Answer: The inhibition at 10 µM was 62.7%.

Question: What about the inhibition at 100 µM [11] of the same compound?
Answer: Its inhibition at 100 µM is 99.5%.

Question: What about the “The inhibition ratio of the compound on Aurora B(%)” value (aurora kinase B; 40 μM) of the same compound?
Answer: Its value is 54.6%.

Question: And the “The inhibition ratio of the compound on Aurora B(%)” value (aurora kinase B; 200 μM)?
Answer: The value was 93.7%.

Question: What about the inhibition at 10 µM [12] of the same compound?
Answer: Its inhibition at 10 µM is 16.5%.

Question: What about the inhibition at 100 µM [12] of the same compound?
Answer: Its inhibition at 100 µM is 78.2%.

Question: What about the inhibition at 10 µM [13] of the same compound?
Answer: The inhibition at 10 µM was 51.3%.

Question: What about the inhibition at 100 µM [13] of the same compound?
Answer: The inhibition at 100 µM was 86.5%.

Question: What about the IC50 [14] of the same compound?
Answer: The IC50 was 15.4 µg/mL (≈ 25.9 µM).

Question: And the IC50 [15]?
Answer: The IC50 was 10.3 µg/mL (≈ 17.4 µM).

Question: What about the inhibition at 10 µM [16] of the same compound?
Answer: Its inhibition at 10 µM is 61.6%.

Question: What about the inhibition at 100 µM [16] of the same compound?
Answer: The inhibition at 100 µM was 96.3%.

Question: And the IC50 [17]?
Answer: Its IC50 is 22.7 µg/mL (≈ 38.3 µM).

Question: And the inhibition at 10 µM [18]?
Answer: Its inhibition at 10 µM is 61%.

Question: What about the inhibition at 100 µM [18] of the same compound?
Answer: Its inhibition at 100 µM is 92.8%.
